Test [1] can be described thus: cells. The class given is functional, cell-based.
The nature of test [2]: cells. The class given is functional, cell-based. The source holds these as a separate data set.
Test [3] can be described thus: viability of PTEN-deleted HCT116 cells – cell-based, HCT116 PTEN knockout, dose response (AID 1047).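 Note: HCT116 colon tumor cells with PTEN knocked out; cells exposed to compound for 60 hours before readout; potency for loss of cell viability measured by luminescence.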 The class given is functional.
The nature of test [4]: viability of HCT116 lacking mutant beta-catenin – cell-based, human colon tumor, dose response (AID 1045).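 Note: HCT116 colon tumor cells with beta catenin knocked out; cells exposed to compound for 60 hours.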 The class given is functional.
The target of the next test is Large T antigen (Simian virus 40, UniProt P03070). The class given is functional, Betapolyomavirus macacae.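 Note: Confirmatory-stage PubChem screen for compounds that inhibit SV40 T antigen.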
Large T antigen, sequence (P03070 whole entry): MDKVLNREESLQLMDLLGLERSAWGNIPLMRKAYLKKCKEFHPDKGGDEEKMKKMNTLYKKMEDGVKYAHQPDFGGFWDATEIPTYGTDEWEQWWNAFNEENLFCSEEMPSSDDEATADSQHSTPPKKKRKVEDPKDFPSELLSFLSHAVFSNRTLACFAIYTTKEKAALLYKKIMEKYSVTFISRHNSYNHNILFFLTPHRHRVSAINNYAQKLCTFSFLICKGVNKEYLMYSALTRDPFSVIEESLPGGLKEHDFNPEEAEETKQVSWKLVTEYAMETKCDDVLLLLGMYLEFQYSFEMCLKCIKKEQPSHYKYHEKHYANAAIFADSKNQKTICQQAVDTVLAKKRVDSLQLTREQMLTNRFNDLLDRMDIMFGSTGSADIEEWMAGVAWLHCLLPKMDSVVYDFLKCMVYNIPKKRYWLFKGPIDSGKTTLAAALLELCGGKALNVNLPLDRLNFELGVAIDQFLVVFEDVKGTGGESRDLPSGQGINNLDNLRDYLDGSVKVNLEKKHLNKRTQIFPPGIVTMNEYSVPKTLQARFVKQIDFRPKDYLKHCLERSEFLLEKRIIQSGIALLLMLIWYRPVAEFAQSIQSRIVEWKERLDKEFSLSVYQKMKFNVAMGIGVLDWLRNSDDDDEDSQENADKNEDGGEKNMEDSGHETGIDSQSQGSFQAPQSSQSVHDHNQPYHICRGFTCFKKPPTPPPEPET
Test [5] can be described thus: reduction of Shn3 3'UTR-driven luciferase in osteoblasts – cell-based, Clone20 osteoblasts, firefly luciferase, cherry-picked, dose response (AID 624132).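 Note: firefly luciferase luminescence from reporter carrying the Shn3 3'UTR in osteoblasts.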 The class given is functional.
The nature of test [6]: loss of viability in HepG2 cells – cell-based, CellTiter-Glo, cherry-picked, cytotoxicity control for Shn3 inhibitor project, dose response (AID 624134). The class given is functional. On the technique in general: In ATP-based viability assays light output follows the ATP content of the culture.
A further test concerns INS1. Kind of test: INS-1E survival protection against cytokine death – cell-based, luminescence, retest, dose response (AID 449756).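 Note: cell death triggered by IL-1 beta plus TNF-alpha plus IFN-gamma mixture; protective hits raise ATP signal compared with cytokine alone wells.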 The class given is functional. The following applies: Rattus norvegicus.
A short description of test [7]: HIV-1 AD8 envelope cell-cell fusion blockers – cherry-pick, dose response (AID 652062).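 Note: luciferase signal from cell-cell fusion driven by HIV-1 clade B AD8 Env; potency is for inhibitors of fusion seen as a drop in luminescence.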 The class given is functional, cell-based.
Test [8] in a line: off-target signal loss in HeLa-CEM21 co-culture – HeLa F-luc CTL cells, cherry-picked, counter-screen for HIV-1 Env fusion inhibitor project, dose response (AID 652040).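 Note: potency for signal decrease marking cytotoxic or nonspecific inhibition.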 The class given is functional, cell-based. (In general: The purpose of a counterscreen is to sort out artefacts and off-target activity.)
Test [9] in a line: P. falciparum Dd2 growth inhibitors, dose response, SYBR Green, cherry-picked samples (AID 1159567). The class given is functional, cell-based.

The structures appear in SMILES notation. Calls of active or inactive are those of the source. Some results are limits rather than exact numbers.

Broadly, the EC50 is the midpoint of the concentration-response curve. In the case of `COc1ccc(C2NN=C(c3ccc(C)cc3)S2)cc1` (configuration not stated), the EC50 is > 350 µM (not active) in the test “cells [1]” and 24.6 µM (active) in “cells [2]”. As to `COc1ccc(NC2=NC(=S)N(c3ccc(C)cc3)C23CCCCC3)cc1`, the EC50 in test [3] is 3.42 µM (active); in [4], 2.47 µM (active). A word on the IC50: it is the midpoint of a concentration-inhibition curve. One may read the AC50 as the concentration at which the activity in the assay is half-maximal. Turning to `C=C1C(=O)O[C@H]2[C@H]1[C@H](OC(=O)CC(=O)O[C@@H]1C[C@@H](C)[C@@H]3C=CC(=O)[C@@]3(C)[C@H]3OC(=O)C(=C)[C@H]13)C[C@@H](C)[C@H]1C=CC(=O)[C@]12C`, the half-inhibitory concentration (IC50) at Large T antigen is 52 µM (active). Besides, the AC50 was 1.54 µM (active) in test [5] and > 70 µM (inactive) in test [6]. In the case of `Cc1cc(-c2nnnn2-c2cc(Cl)cc(Cl)c2)no1`, the half-maximal effective concentration (EC50) in the test “cells [1]” and in “cells [2]” was > 350 µM (not active) each time. As to `O=C(O)c1cccc(S(=O)(=O)Nc2ccc3oc(=O)sc3c2)c1`, on Large T antigen, the half-maximal inhibitory concentration (IC50) was 46.3 µM (active). Turning to `Cc1ccc(C(=O)Nc2c3c(nn2C(C)(C)C)CS(=O)(=O)C3)cc1C`, the EC50 in “cells [1]” and in the test “cells [2]” was > 350 µM (not active) throughout. For the compound `N=c1c2c(-c3ccccc3)c(-c3ccccc3)n(Cc3ccco3)c2ncn1CCO`, the EC50 is 1.15 µM (active) in test [3] and 1.27 µM (active) in test [4]. In the case of `CCn1c(SCC(=O)Nc2cc(C)on2)nc2sc3c(c2c1=O)CCCC3`, the figures for the concentration for a half-maximal effect (EC50) in test [3] and in test [4] were 6.49 µM (active) and 13.2 µM (active), respectively. Besides, the concentration at half-maximal activity (AC50) with INS1 was 8.67 µM (active). As to `Cc1cccc(N2C(=O)/C(=C/Nc3ccc(O)cc3)c3ccccc3C2=O)n1`, the IC50 on Large T antigen is 7.67 µM (active). With `CC(C(=O)Nc1ccccc1-c1ccccc1)N1CCN(C(=O)c2ccccc2)CC1` (configuration not stated), the EC50 in the test “cells [1]” and in “cells [2]” was > 350 µM (not active) each time. Turning to `Cc1ccc(NC(=O)CSc2ncc3ccccn23)cc1`, the figures for the 50% effective concentration (EC50) in the test “cells [1]” and in the test “cells [2]” were > 350 µM (not active) and 41.4 µM (active), respectively. As for `Nc1ncnc(O)c1/N=C/c1ccccc1`, at Large T antigen, the concentration for half-maximal inhibition (IC50) is 28.6 µM (active). As to `Cc1ccc(S(=O)(=O)N(C)C[C@@H]2Oc3ccc(NS(=O)(=O)c4ccc(Cl)cc4)cc3C(=O)N([C@@H](C)CO)C[C@H]2C)cc1`, in test [7], the AC50 is 3.2 µM (active). `CC(=O)c1ccc([C@H]2C[C@@]34CN(C(=O)OC(C)(C)C)S(=O)(=O)[C@H]3C[C@H]2O4)cc1`: in test [8], the concentration at half-maximal activity (AC50) is 36.6 µM (active). Turning to `CCOC(=O)/C(=N\Nc1ccc(F)cc1)C(=O)c1ccc([N+](=O)[O-])cc1`, the EC50 in the test “cells [1]” and in “cells [2]” was > 350 µM (not active) in each case. Consider `C[C@@H]1CN([C@H](C)CO)S(=O)(=O)c2ccc(C#C[C@@H](C)O)cc2O[C@H]1CN(C)C(=O)Nc1ccccc1`, for which the AC50 in test [9] is 13 µM (active). On the same count and under the same terms, in the case of `COc1ccc(NC(=O)Nc2ccc3c(c2)CC(=O)N([C@H](C)CO)C[C@H](C)[C@@H](CN(C)CC2CCCCC2)O3)cc1` it was 4.53 µM (active); in that of `COc1ccc(-c2ccc([C@@H]3[C@H]4CN(C(=O)NC(C)C)CC(=O)N4[C@H]3CO)cc2)cc1`, 10 µM (active); in that of `COc1ccccc1-c1ccccc1[C@H]1[C@H](C#N)N(C(=O)C2CCC2)[C@H]1CO`, 12 µM (active).

Turning to `COc1ccc(NC(=O)Nc2ccc3c(c2)[C@H]2C[C@H](CC(=O)N4CCc5ccccc5C4)O[C@H](CO)[C@H]2O3)cc1`, the AC50 in test [9] is 7.78 µM (active).

(Values after ChEMBL document CHEMBL1201862, “PubChem BioAssay data set” (2004).)
